Experimental data: patent US20240254129A1, “HETEROCYCLIC COMPOUNDS AND USES THEREOF” (Kumquat Biosciences Inc., priority 2021, published 2024)
Read-outs that look alike come from different tables or passages of the source.

Tests used:
[1] = molecular target: T1, wildtype Kras / hSOS1 (Homo sapiens, UniProt P01116); assay: HTRF assay, wildtype Kras / SOS1 interaction; type: binding; conditions: read-out: IC50 against wildtype Kras
T1 construct: made in house; host or cells: E. coli BL21 (DE3)
Method in brief: (§1)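 Buffer ~5 mM HEPES pH 7.4, ~150 mM NaCl, ~1 mM DTT, 0.05% BSA, 0.0025% Igepal. Cpd in DMSO + Ras/donor mix + SOS1/acceptor mix; ≥10 min; HTRF 665/620 ratio → IC50.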

[2] = molecular target: GST-tagged K-Ras mutant / His-tagged hSOS1 (Homo sapiens, UniProt P01116); assay: HTRF assay, K-Ras mutant / SOS1 interaction; type: binding; conditions: read-out: IC50 against mutant Kras
Method in brief: as §1

[3] = compound nos. 102-196, general methodology of example 5

Chain of GST-tagged K-Ras mutant / His-tagged hSOS1 (P01116 whole entry G12D, form open): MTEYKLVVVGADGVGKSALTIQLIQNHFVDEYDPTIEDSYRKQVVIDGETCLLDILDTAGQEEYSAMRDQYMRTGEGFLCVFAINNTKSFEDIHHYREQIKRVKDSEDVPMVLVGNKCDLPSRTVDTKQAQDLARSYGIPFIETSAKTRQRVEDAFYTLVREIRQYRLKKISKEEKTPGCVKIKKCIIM
T1 sequence (P01116 1-188 isoform P01116-2): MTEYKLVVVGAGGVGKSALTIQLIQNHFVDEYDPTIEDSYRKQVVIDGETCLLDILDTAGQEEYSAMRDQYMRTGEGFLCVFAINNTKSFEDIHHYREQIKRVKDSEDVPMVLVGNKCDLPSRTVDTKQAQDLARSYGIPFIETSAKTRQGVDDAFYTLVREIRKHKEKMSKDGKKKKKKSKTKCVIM

| IC50 ([1]; compound nos. 401-703) | IC50 ([2]; compound nos. 401-703) | SMILES | other results |
| --- | --- | --- | --- |
| > 500 nM | < 500 nM | CN1CCC[C@H]1COc1nc(N2CCCC(n3ccnc3)CC2)c2cc(Cl)c(-c3cccc4sc(N)nc34)c(F)c2n1 (stereo partly drawn) [Compound 651, 4-(4-(4-(1H-imidazol-1-yl)-azepan-1-yl)-6-chloro-8-fluoro-2-(((S)-1-methyl-pyrrolidin-2-yl)methoxy)-quinazolin-7-yl)benzo[d]-thiazol-2-amine] |  |
| > 500 nM | > 500 nM | Cc1ccc2[nH]nc(N)c2c1-c1ccc2c(N3CC4CCC(C3)N4)nc(OC[C@@]34CCCN3C[C@H](F)C4)nc2c1F [Compound 703, 4-(4-(3,8-diazabicyclo-[3.2.1]octan-3-yl)-8-fluoro-2-(((2R,7aS)-2-fluorotetra-hydro-1H-pyrrolizin-7a(5H)-yl)methoxy)quinazolin-7-yl)-5-methyl-1H-indazol-3-amine] |  |
| > 500 nM | > 500 nM | N#Cc1n[nH]c2c(F)ccc(-c3c(Cl)cc4c(N5CC6CCC(C5)N6)nc(OC[C@@]56CCCN5C[C@H](F)C6)nc4c3F)c12 [Compound 531, 4-(4-(3,8-diazabicyclo-[3.2.1]octan-3-yl)-6-chloro-8-fluoro-2-(((2R,7aS)-2-fluorotetrahydro-1H-pyrrol-izin-7a(5H)-yl)methoxy)-quin-azolin-7-yl)-7-fluoro-1H-indazole-3-carbonitrile] |  |
| > 500 nM | > 500 nM | Nc1cc(-c2c(Cl)cc3c(N4CC5CCC(C4)N5)nc(OCC45CCCN4CCC5)nc3c2F)c2ccccc2c1 [Compound 564, 4-(4-(3,8-diazabicyclo-[3.2.1]octan-3-yl)-6-chloro-8-fluoro-2-((tetrahydro-1H-pyrrolizin-7a(5H)-yl)meth-oxy)quinazolin-7-yl)naph-thalen-2-amine] |  |
| > 500 nM | < 500 nM | N#CN1CCN(c2nc(OCC34CCCN3CCC4)nc3c(F)c(-c4ccc(F)c5sc(N)nc45)c(Cl)cc23)CC(F)(F)C1 [Compound 551, 4-(7-(2-amino-7-fluorobenzo[d]thiazol-4-yl)-6-chloro-8-fluoro-2-((tetrahydro-1H-pyrrolizin-7a(5H)-yl)methoxy)quinazolin-4-yl)-6,6-difluoro-1,4-diazepane-1-carbonitrile] |  |
| < 500 nM | < 500 nM | CNCC1CN(c2nc(OCC34CCCN3CCC4)nc3c(F)c(-c4ccc(F)c5sc(N)nc45)c(Cl)cc23)CCCO1 (stereo not shown) [Compound 481, 4-(6-chloro-8-fluoro-4-(2-((methylamino)methyl)-1,4-oxazepan-4-yl)-2-((tetra-hydro-1H-pyrrolizin-7a(5H)-yl)methoxy)quinazolin-7-yl)-7-fluorobenzo[d]thiazol-2-amine] |  |
| > 500 nM | < 500 nM | Nc1nc2c(-c3c(Cl)cc4c(N5CCC6CNCC6C5)nc(OC[C@@]56CCCN5C[C@H](F)C6)nc4c3F)ccc(F)c2s1 (stereo partly drawn) [Compound 623, 4-(6-chloro-8-fluoro-2-(((2R,7aS)-2-fluorotetra-hydro-1H-pyrrolizin-7a(5H)-yl)methoxy)-4-(octahydro-5H-pyrrolo[3,4-c]pyridin-5-yl)quinazolin-7-yl)-7-fluoro-benzo[d]thiazol-2-amine] |  |
| > 500 nM | < 500 nM | N#Cc1c(N)sc2c(F)ccc(-c3c(Cl)cc4c(N5CCC6CCC(C5)N6)nc(OC[C@@]56CCCN5C[C@H](F)C6)nc4c3F)c12 (stereo partly drawn) [Compound 504, 4-(4-(3,9-diazabicyclo-[4.2.1]nonan-3-yl)-6-chloro-8-fluoro-2-(((2R,7aS)-2-fluorotetrahydro-1H-pyrrol-izin-7a(5H)-yl)methoxy)-quin-azolin-7-yl)-2-amino-7-fluorobenzo[b]thiophene-3-carbonitrile] |  |

Second part, the compound before the results:

| SMILES | IC50 ([1]; compound nos. 401-703) | IC50 ([2]; compound nos. 401-703) | other results |
| --- | --- | --- | --- |
| Oc1cc(-c2cnc3c(N4CC5CCC(C4)N5)nc(OC[C@@]45CCCN4C[C@H](F)C5)nc3c2)c2ccccc2c1 (single isomer, unassigned) [Compound 429] | < 500 nM | > 500 nM |  |
| Cc1ccc2oc(N)nc2c1-c1c(Cl)cc2c(N3CCNCC(F)(F)C3)nc(OC[C@@]34CCCN3C[C@H](F)C4)nc2c1F [Compound 463, 4-(6-chloro-4-(6,6-difluoro-1,4-diazepan-1-yl)-8-fluoro-2-(((2R,7aS)-2-fluorotetra-hydro-1H-pyrrolizin-7a(5H)-yl)methoxy)quinazolin-7-yl)-5-methylbenzo[d]oxazol-2-amine] | < 500 nM | < 500 nM |  |
| Cc1nc2c(-c3c(Cl)cc4c(N5CCNCC(F)(F)C5)nc(OC[C@@H]5CCCN5C)nc4c3F)cccc2s1 [Compound 138, 4-(6-chloro-4-(6,6-difluoro-1,4-diazepan-1-yl)-8-fluoro-2-(((S)-1-methylpyrrolidin-2-yl)methoxy)quinazolin-7-yl)-2-methylbenzo[d]thiazole] |  |  | IC50 [1, 3]: > 500 nM; IC50 [2, 3]: > 500 nM |
| Nc1nc2c(-c3c(Cl)cc4c(N5CCNCC(O)C5)nc(OCC56CCCN5CCC6)nc4c3F)ccc(F)c2s1 (stereo not shown) [Compound 161, 1-(7-(2-amino-7-fluoro-benzo[d]thiazol-4-yl)-6-chloro-8-fluoro-2-((tetra-hydro-1H-pyrrolizin-7a(5H)-yl)methoxy)quinazolin-4-yl)-1,4-diazepan-6-ol] |  |  | IC50 [1, 3]: < 500 nM; IC50 [2, 3]: < 500 nM |
| CN1CCC[C@H]1COc1nc(N2CCN(S(C)(=O)=O)CC(F)(F)C2)c2cc(Cl)c(-c3cccc4sc(N)nc34)c(F)c2n1 [Compound 140, 4-(6-chloro-4-(6,6-difluoro-4-(methylsulfonyl)-1,4-diazepan-1-yl)-8-fluoro-2-(((S)-1-methylpyrrolidin-2-yl)methoxy)quinazolin-7-yl)-benzo[d]thiazol-2-amine] |  |  | IC50 [1, 3]: < 500 nM; IC50 [2, 3]: > 500 nM |
| Nc1nc2c(-c3c(Cl)cc4c(N5CCNCC(F)(F)C5)nc(OCC5(CN6CCCC6)CC5)nc4c3F)ccc(F)c2s1 [Compound 452, 4-(6-chloro-4-(6,6-difluoro-1,4-diazepan-1-yl)-8-fluoro-2-((1-(pyrrolidin-1-ylmeth-yl)cyclopropyl)methoxy)-quinazolin-7-yl)-7-fluoro-benzo[d]thiazol-2-amine] | < 500 nM | < 500 nM |  |
| Nc1nc2c(-c3c(Cl)cc4c(N5[C@@H]6CC[C@H]5CC(F)(F)C6)nc(OC[C@@]56CCCN5C[C@H](F)C6)nc4c3F)ccc(F)c2s1 [Compound 303, 4-(6-chloro-4-((1R,5S)-3,3-difluoro-8-azabicyclo[3.2.1]-octan-8-yl)-8-fluoro-2-(((2R,7aS)-2-fluorotetra-hydro-1H-pyrrolizin-7a(5H)-yl)methoxy)quinazolin-7-yl)-7-fluorobenzo[d]thiazol-2-amine] |  |  | IC50 ([1]; compound nos. 301-306): < 1500 nM; IC50 ([2]; compound nos. 301-306): > 1500 nM |
| Cc1ccc2sc(N)nc2c1-c1c(Cl)cc2c(N3CCNCC(F)(F)C3)nc(OCC34CCCN3CCC4)nc2c1O [Compound 426, 7-(2-amino-5-methylbenzo-[d]thiazol-4-yl)-6-chloro-4-(6,6-difluoro-1,4-diazepan-1-yl)-2-((tetrahydro-1H-pyrrolizin-7a(5H)-yl)meth-oxy)quinazolin-8-ol] | < 500 nM | > 500 nM |  |
| Nc1nc2c(-c3c(Cl)cc4c(N5CCNCC(F)(F)C5)nc(OCc5ccccn5)nc4c3F)cccc2s1 [Compound 139, 4-(6-chloro-4-(6,6-difluoro-1,4-diazepan-1-yl)-8-fluoro-2-(pyridin-2-ylmethoxy)-quinazolin-7-yl)benzo[d]-thiazol-2-amine] |  |  | IC50 [1, 3]: > 500 nM; IC50 [2, 3]: > 500 nM |
